# From patent US20230346705A1, “NANOPARTICLES FOR TREATING OR PREVENTING A CARDIOMYOPATHY AND ANTHRACYCLINE-CYTOTOXICITY, AND THEIR ADMINISTRATION AS AN AEROSOL” (INSTITUT NATIONAL DE LA SANTE ET DE LA RECHERCHE MEDICALE …, priority 2020, published 2023)
# How the values were obtained:
# H9C2 cells [1] = experiment: Lysosomal pH (Acridine Orange, Lysosensor) in H9C2; assay type: cell-based, Rat
# Method: Acridine Orange (Sigma Aldrich), a weak base which accumulates in acidic organelles, was used to label the lysosomes. After treatments, cells were incubated with 5 μM AO for 10 min at 37° C. and washed twice with PBS. Red fluorescence (corresponding to acidic vesicles staining) was measured using a Varioskan Flash Multimode Microplate Reader with excitation/emission at 480/630 nm. Representative pictures were taken with an epifluorescence microscope (DM600 microscope, Leica).
# Lysosomal acidification was measured in H9C2 and NRVMs loaded with 2 μM LysoSensor yellow/blue DND-160 (Invitrogen) for 15 min at 37° C. The LysoSensor dye is a ratiometric probe that produces yellow fluorescence in acidic environments, but changes to blue fluorescence in neutral environments. pH calibration was performed following the protocol established by Diwu et al. (Chem Biol. (1999); 6(7):411-418). Briefly, cells were incubated in MES buffer (5 mMNaCl, 115 mMKCl, 1.3 mM MgSO 4, 25 mM MES) supplemented with 10 μM nigericin and 10 μM monensin, for 10 min, with pH adjusted to a range from 3 to 7. The samples were read in a Varioskan Flash Multimode Microplate Reader with excitation at 360 nm. The ratio of emission 440/540 nm was then calculated for each sample.
# LC3-II and p62 = experiment: Western blot of autophagy markers LC3-II and p62 in H9C2; assay type: cell-based, Rat; conditions: H9C2, Baf A1 treatment alone
# Method: H9C2 or NRVMs extracts were prepared by lysing in RIPA buffer (50 mM Tris pH 7.2, 500 mM NaCl, 1% Triton X-100, 1 mM EDTA, 100 mM sodium fluoride, 5 mM sodium metavanadate, 10 mM sodium pyrophosphate) and equal protein amounts were subjected to sodium dodecyl sulfate-polyacrylamide gel electrophoresis (SDS-PAGE) in 10-15% gels depending upon protein molecular weight. After electrophoresis, proteins were transferred to nitrocellulose membranes and incubated with the following antibodies: anti-GAPDH, anti-LC3B, anti-cleaved caspase 3, anti-p-p53 from Cell Signaling Technology, anti-p62 from Abnova, anti-Lamp1, anti-cathepsin D from Abcam. Proteins were detected by chemiluminescence with a Bio-Rad ChemiDoc XRS camera. Relative densities were quantified using the ImageLab 5.2.1 software (Bio-Rad). All data were normalized by internal controls.
# H9C2 cells [2] = experiment: Autophagosomes/autolysosomes visualization (GFP-LC3, RFP-GFP-LC3) in H9C2; assay type: cell-based, Rat
# Method: Autophagosomes were visualized in GFP-LC3-transduced cells. Autophagic flux was evaluated in RFP-GFP-LC3-transduced cells. Representative images were taken with an epifluorescence microscope (DM600 microscope, Leica) and quantification of yellow puncta (autophagosomes) and red puncta (autolysosomes) was performed using Image J software.
# H9C2 cells [3] = experiment: Mitochondrial membrane potential (JC-1 probe) in H9C2; assay type: cell-based, Rat; conditions: H9C2, 10 h after doxorubicin 1 μM alone
# Method: The mitochondrial membrane potential was evaluated using JC-1 probe (ThermoFisher Scientific). Before the end of treatments, cells were loaded with JC-1 probe at a concentration of 5 μg/ml for 10 min at 37° C. Then, medium was replaced by HBSS and the fluorescence was recorded at 535 nm (excitation wavelength, emission at 590 nm) to measure the formation of red aggregates and at 485 (excitation wavelength, emission at 530 nm) to measure the presence of green monomers, using a fluorimeter TECAN infinite pro F200. Representative images were taken with an epifluorescence microscope (DM600 microscope, Leica).
# [4] = tested on: neonatal rat ventricular myocytes (NRVMs); experiment: Lysosomal pH (Acridine Orange, Lysosensor) in NRVMs; assay type: cell-based; conditions: doxorubicin 250 nM alone
# Method: Rat H9C2 cardiomyoblasts (American Type Culture Collection, Rockville, U.S.A.) were grown in DMEM media containing 10% heat-inactivated FBS under 5% CO2 and 95% air at 37° C. H9C2 serve as an animal-free alternative sharing many physiological properties of primary cardiac cells. For neonatal rat ventricular myocytes (NRVMs), rats of 1-2 days old were euthanized and hearts were excised before the atria were removed. Primary culture of NRVMs was subsequently performed as previously described (Manzella et al. 2018; Aging Cell 17(5):e12811). NRVMs were grown in Ham-F12 medium containing 10% heat-inactivated FBS and 10% heat-inactivated HS under 5% CO2 and 95% air at 37° C. […]
# Acridine Orange (Sigma Aldrich), a weak base which accumulates in acidic organelles, was used to label the lysosomes. […] Red fluorescence (corresponding to acidic vesicles staining) was measured using a Varioskan Flash Multimode Microplate Reader with excitation/emission at 480/630 nm. […]
# Lysosomal acidification was measured in H9C2 and NRVMs loaded with 2 μM LysoSensor yellow/blue DND-160 (Invitrogen) for 15 min at 37° C. The LysoSensor dye is a ratiometric probe that produces yellow fluorescence in acidic environments, but changes to blue fluorescence in neutral environments. pH calibration was performed following the protocol established by Diwu et al. (Chem Biol. (1999); 6(7):411-418). […]
# [5] = tested on: neonatal rat ventricular myocytes (NRVMs); experiment: Cell death / toxicity (LDH release) in NRVMs; assay type: cell-based; conditions: doxorubicin 1 μM alone
# Method: Rat H9C2 cardiomyoblasts (American Type Culture Collection, Rockville, U.S.A.) were grown in DMEM media containing 10% heat-inactivated FBS under 5% CO2 and 95% air at 37° C. H9C2 serve as an animal-free alternative sharing many physiological properties of primary cardiac cells. For neonatal rat ventricular myocytes (NRVMs), rats of 1-2 days old were euthanized and hearts were excised before the atria were removed. Primary culture of NRVMs was subsequently performed as previously described (Manzella et al. 2018; Aging Cell 17(5):e12811). NRVMs were grown in Ham-F12 medium containing 10% heat-inactivated FBS and 10% heat-inactivated HS under 5% CO2 and 95% air at 37° C. Plasmid transfections with GFP-LC3, GFP-RFP-LC3 or RFP-LAMP1 constructs (Addgene) were performed using Lipofectamine 2000 reagent (Life Technologies) in Opti-MEM™ transfection medium (Gibco). […]
# For quantitative assessment of cardiomyocyte necrosis, LDH release in culture medium was measured using the LDH cytotoxicity assay kit according to the manufacturer's instructions (Biovision). Apoptosis was measured in NRVMs by caspase-3 activation using a commercial kit (Biotium) according to the manufacturer's instructions.
# [6] = tested on: neonatal rat ventricular myocytes (NRVMs); experiment: Mitochondrial ROS (mitoSOX) in NRVMs; assay type: cell-based; conditions: doxorubicin 250 nM alone
# Method: (§1) Cellular ROS were measured using the fluorescent probe DCFDA assay at a concentration of 5 μM (ThermoFisher Scientific). Fluorescence was quantified using a fluorimeter TECAN infinite proF200 with excitation/emission at 500/530 nm. Mitochondrial ROS were measured by mitoSOX probe (Invitrogen, Molecular Probes). Briefly, the cells were loaded with mitoSOX probe at a final concentration of 5 μM and incubated for 30 min after the indicated treatments. Cells were resuspended in HBSS before reading in Tecan plate reader.
# H9C2 cells [7] = experiment: Cellular ROS (DCFDA) in H9C2; assay type: cell-based, Rat; conditions: H9C2, 10 h after doxorubicin 1 μM alone
# Method: as §1
# [8] = H9C2, Bafilomycin A1 100 nM alone
mitochondrial membrane potential (JC-1) (H9C2 cells [3]),mitochondrial ROS (mitoSOX) [6],"oxidative stress (ROS, DCFDA) (H9C2 cells [7])",Compound,Acridine Orange red puncta (lysosomal acidification) (H9C2 cells [1]; [8]),lysosomal pH (Lysosensor) (H9C2 cells [1]; [8]),LC3-II and p62 protein levels (LC3-II and p62),"autophagic flux, tandem RFP-GFP-LC3 reporter (H9C2 cells [2]; H9C2, Baf A1 alone)","autophagosomes in GFP-LC3-transduced cells (H9C2 cells [2]; H9C2, Baf A1 treatment alone)",duration of A.O. red fluorescence alteration [4],A.O. red fluorescence ([4]; 24 h),cell death at the dose used in prior experiments [5],"AO red fluorescence (H9C2 cells [1]; H9C2, doxorubicin 1 μM alone)","lysosomal pH (lysosensor blue/yellow ratio) (H9C2 cells [1]; H9C2, doxorubicin 1 μM alone)","autolysosomes (AL), GFP-RFP-LC3 reporter (H9C2 cells [2]; H9C2, doxorubicin 1 μM alone)","number of autophagosomes (AP), GFP-RFP-LC3 reporter (H9C2 cells [2]; H9C2, doxorubicin 1 μM alone)"
,,,"CO/C1=C\C(C)=C\[C@@H](C)[C@@H](O)[C@@H](C)C/C(C)=C/C=C/[C@H](OC)[C@@H]([C@@H](C)[C@@H](O)[C@H](C)[C@@]2(O)C[C@@H](O)[C@H](C)[C@@H](C(C)C)O2)OC1=O [Baf A1, Bafilomycin A1]",loss of Acridine Orange (AO) red puncta,rise in lysosomal pH,increased LC3-II and p62 protein levels,accumulation of red+green autophagosomes (AP) and to the reduction of red-only autolysosomes,accumulation of autophagosomes (AP),,,,,,,
drop in mitochondrial membrane potential,mitochondrial ROS increase,accumulation of oxidative stress,COc1cccc2c1C(=O)c1c(O)c3c(c(O)c1C2=O)C[C@@](O)(C(=O)CO)C[C@@H]3O[C@H]1C[C@H](N)[C@H](O)[C@H](C)O1 [doxorubicin],,,,,,maintained until 40 h,decrease in A.O. red fluorescence,rapid cell death in only 24 hours,significantly decreased AO red fluorescence,increased lysosomal pH,accumulation of autolysosomes (AL),remained unchanged
